Source: PubChem BioAssay AID248 (DTP/NCI, 2004)
“And” between values parts separate entries of the source, which are not always exact repeats. Equal values may be shown once. Inconclusive results and toxic doses are left out. Cut-off read from the data, not from the text of the source: active = T/C of 150% or more; inactive = T/C below 125%.

System: L1210 leukemia ip in BDF1 mice, survival T/C
Experiment: NCI In Vivo Anticancer Drug Screen. Data for tumor model L1210 Leukemia (intraperitoneal) in B6D2F1 (BDF1) mice
Conditions: endpoint: mean survival time, higher = longer survival
Summary of the method: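 Transplantable tumor model; survival measured in treated vs vehicle control mice. Value = treated/control.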

[1] = dose: 200.0 mg/kg/injection, schedule: Q04DX002 (ip), vehicle: saline with Tween-80
[2] = dose: 100.0 mg/kg/injection, schedule: Q01DX009 (ip), vehicle: Klucel (hydroxypropylcellulose) (HPC)
[3] = dose: 100.0 mg/kg/injection, schedule: Q04DX003 (ip), vehicle: Klucel (hydroxypropylcellulose) (HPC)
[4] = dose: 200.0 mg/kg/injection, schedule: Q01DX009 (ip), vehicle: Klucel (hydroxypropylcellulose) (HPC)
[5] = dose: 200.0 mg/kg/injection, schedule: Q04DX003 (ip), vehicle: Klucel (hydroxypropylcellulose) (HPC)
[6] = dose: 400.0 mg/kg/injection, schedule: Q01DX009 (ip), vehicle: Klucel (hydroxypropylcellulose) (HPC)
[7] = dose: 400.0 mg/kg/injection, schedule: Q04DX003 (ip), vehicle: Klucel (hydroxypropylcellulose) (HPC)
[8] = dose: 100.0 mg/kg/injection, schedule: Q04DX003 (ip), vehicle: saline with Tween-80
[9] = dose: 200.0 mg/kg/injection, schedule: Q04DX003 (ip), vehicle: saline with Tween-80
[10] = dose: 100.0 mg/kg/injection, schedule: Q04DX003 (ip), vehicle: saline
[11] = dose: 200.0 mg/kg/injection, schedule: Q04DX003 (ip), vehicle: saline
[12] = dose: 400.0 mg/kg/injection, schedule: Q04DX003 (ip), vehicle: saline
[13] = dose: 100.0 mg/kg/injection, schedule: Q04DX002 (ip), vehicle: Klucel (hydroxypropylcellulose) (HPC)
[14] = dose: 200.0 mg/kg/injection, schedule: Q04DX002 (ip), vehicle: Klucel (hydroxypropylcellulose) (HPC)
[15] = dose: 400.0 mg/kg/injection, schedule: Q04DX002 (ip), vehicle: Klucel (hydroxypropylcellulose) (HPC)
[16] = dose: 100.0 mg/kg/injection, schedule: Q01DX001 (ip), vehicle: Klucel (hydroxypropylcellulose) (HPC)
[17] = dose: 200.0 mg/kg/injection, schedule: Q01DX001 (ip), vehicle: Klucel (hydroxypropylcellulose) (HPC)
[18] = dose: 400.0 mg/kg/injection, schedule: Q01DX001 (ip), vehicle: Klucel (hydroxypropylcellulose) (HPC)

Measured: T/C

CCS(=O)(=O)N1CCCCC1C (stereo unspecified)
inactive: dose: 100.0 mg/kg/injection, schedule: Q04DX002 (ip), vehicle: saline with Tween-80 93 % of control | [1] 99 % of control | dose: 400.0 mg/kg/injection, schedule: Q04DX002 (ip), vehicle: saline with Tween-80 96 % of control

COc1ccccc1NC(=O)Nc1ccccc1F
inactive: [2] 100 % of control | [3] 89 % of control | [4] 105 % of control | [5] 89 % of control | [6] 97 % of control | [7] 97 % of control

CCCCN(CC)CCNc1cc(C)nc(/N=C(\N)Nc2ccc(Cl)c(Cl)c2)n1
inactive: dose: 18.75 mg/kg/injection, schedule: Q01DX009 (ip), vehicle: Klucel (hydroxypropylcellulose) (HPC) 102 % of control | dose: 37.5 mg/kg/injection, schedule: Q01DX009 (ip), vehicle: Klucel (hydroxypropylcellulose) (HPC) 88 % of control

C=CC(C)(C)c1ccccc1O
inactive: [8] 95 % of control | [9] 104 % of control

O=C1CC(N2C(=O)C3CCCCC3C2=O)C(=O)N1 (stereo unspecified)
inactive: [10] 97 % of control | [11] 101 % of control | [12] 97 % of control

CCOP(=O)(OCCBr)C(c1ccccc1)(c1ccccc1)c1ccccc1 (stereo unspecified)
inactive: [13] 89 % of control | [14] 92 % of control | [15] 92 % of control

OCc1cccs1
inactive: [2] 108 % of control | [3] 97 % of control | [4] 94 % of control | [5] 97 % of control | [6] 103 % of control | [7] 97 % of control

Cc1ccc(C(C)(C)CP(c2ccccc2)c2ccccc2)cc1
inactive: dose: 25.0 mg/kg/injection, schedule: Q04DX002 (ip), vehicle: saline with Tween-80 95 % of control | dose: 50.0 mg/kg/injection, schedule: Q04DX002 (ip), vehicle: saline with Tween-80 92 % of control | [1] 89 % of control

O=C(Nc1cccc(O)c1)C(O)C(O)C(O)C(O)CO (stereo unspecified)
inactive: [10] 97 % of control | [11] 94 % of control | [12] 91 % of control

Nc1ccc(NC(=O)c2ccc3ccccc3c2O)c(Cl)c1
inactive: [3] 94 % of control | [5] 97 % of control | [7] 94 % of control

S=P(NCc1ccccc1)(NCc1ccccc1)NCc1ccccc1
inactive: dose: 100.0 mg/kg/injection, schedule: Q04DX002 (ip), vehicle: gum acacia 97 % of control | dose: 200.0 mg/kg/injection, schedule: Q04DX002 (ip), vehicle: gum acacia 97 % of control | dose: 400.0 mg/kg/injection, schedule: Q04DX002 (ip), vehicle: gum acacia 94 % of control

COC(C#N)C(O)(c1ccccc1)c1ccccc1 (stereo unspecified)
inactive: dose: 75.0 mg/kg/injection, schedule: Q01DX001 (ip), vehicle: other 94 % of control | dose: 150.0 mg/kg/injection, schedule: Q01DX001 (ip), vehicle: other 100 % of control

CC(=O)Nc1ccc(S(=O)(=O)OCCC#N)cc1
inactive: [8] 99 % of control | [9] 99 % of control | dose: 400.0 mg/kg/injection, schedule: Q04DX003 (ip), vehicle: saline with Tween-80 90 % of control

CCCCCCCCCC(=O)N1CCCCCC1
inactive: [13] 98 % of control | [14] 95 % of control | [15] 88 % of control

Cc1cccc(NC(=O)Oc2ccccc2C(N)=O)c1
inactive: [16] 94 % of control | [2] 94 % of control | [13] 94 % of control and 100 % of control | [3] 95 % of control | [17] 95 % of control | [4] 96 % of control | [14] 98 % of control | [5] 95 % of control | [18] 106 % of control | [6] 91 % of control and 92 % of control | [15] 94 % of control and 96 % of control | [7] 93 % of control

CO[C@@H]1[C@@H](OC2OC(C)C(OC3CC(C)(O)C(OC(=O)CC(C)C)C(C)O3)C(N(C)C)C2O)[C@@H](CC=O)C[C@@H](C)C(=O)/C=C/C2O[C@H]2C[C@@H](C)OC(=O)C[C@H]1OC(C)=O (stereo partly specified)
inactive: dose: 50.0 mg/kg/injection, schedule: Q01DX Z (ip), vehicle: other 103 % of control | dose: 100.0 mg/kg/injection, schedule: Q01DX001 (ip), vehicle: water 108 % of control | dose: 100.0 mg/kg/injection, schedule: Q01DX015 (ip), vehicle: water 102 % of control | dose: 100.0 mg/kg/injection, schedule: Q01DX Z (ip), vehicle: other 110 % of control | dose: 100.0 mg/kg/injection, schedule: Q#A X030 (ip), vehicle: water 108 % of control and 92 % of control | dose: 150.0 mg/kg/injection, schedule: Q01DX Z (ip), vehicle: other 105 % of control | dose: 150.0 mg/kg/injection, schedule: Q#A X030 (ip), vehicle: water 97 % of control | dose: 200.0 mg/kg/injection, schedule: Q01DX001 (ip), vehicle: water 106 % of control | dose: 200.0 mg/kg/injection, schedule: Q01DX015 (ip), vehicle: water 118 % of control | dose: 200.0 mg/kg/injection, schedule: Q01DX Z (ip), vehicle: methylcellulose (MC) 118 % of control | dose: 200.0 mg/kg/injection, schedule: Q01DX Z (ip), vehicle: other 105 % of control | dose: 200.0 mg/kg/injection, schedule: Q#A X030 (ip), vehicle: water 118 % of control | dose: 250.0 mg/kg/injection, schedule: Q01DX Z (ip), vehicle: methylcellulose (MC) 118 % of control | dose: 250.0 mg/kg/injection, schedule: Q01DX Z (ip), vehicle: other 115 % of control | dose: 300.0 mg/kg/injection, schedule: Q01DX015 (ip), vehicle: water 101 % of control and 118 % of control | dose: 300.0 mg/kg/injection, schedule: Q01DX Z (ip), vehicle: methylcellulose (MC) 116 % of control | dose: 350.0 mg/kg/injection, schedule: Q01DX Z (ip), vehicle: methylcellulose (MC) 116 % of control | dose: 400.0 mg/kg/injection, schedule: Q01DX001 (ip), vehicle: water 101 % of control | dose: 400.0 mg/kg/injection, schedule: Q01DX015 (ip), vehicle: water 87 % of control | dose: 600.0 mg/kg/injection, schedule: Q01DX001 (ip), vehicle: water 110 % of control

S=c1[nH]ccs1
inactive: dose: 25.0 mg/kg/injection, schedule: Q01DX001 (ip), vehicle: saline 100 % of control | dose: 50.0 mg/kg/injection, schedule: Q01DX001 (ip), vehicle: saline 98 % of control | dose: 100.0 mg/kg/injection, schedule: Q01DX001 (ip), vehicle: saline 98 % of control and 99 % of control

O=C(C=c1sc(=CC(=O)c2ccccc2)s1)c1ccccc1
inactive: [16] 97 % of control | [17] 97 % of control | [18] 97 % of control

Cc1sc2ccc3ccccc3c2[n+]1C
inactive: dose: 50.0 mg/kg/injection, schedule: Q04DX003 (ip), vehicle: Klucel (hydroxypropylcellulose) (HPC) 105 % of control | dose: 75.0 mg/kg/injection, schedule: Q01DX001 (ip), vehicle: saline 103 % of control | [3] 109 % of control | dose: 150.0 mg/kg/injection, schedule: Q01DX001 (ip), vehicle: saline 111 % of control

CCN(CC)CC(=O)NCC(CCN1CCCCC1)c1cccc2ccccc12 (stereo unspecified)
inactive: dose: 25.0 mg/kg/injection, schedule: Q04DX003 (ip), vehicle: saline 98 % of control | dose: 50.0 mg/kg/injection, schedule: Q04DX003 (ip), vehicle: saline 111 % of control | dose: 100.0 mg/kg/injection, schedule: Q01DX009 (ip), vehicle: saline 105 % of control | [10] 111 % of control
